From ChEMBL document CHEMBL1156052, “Discovery of 1-[4-(3-chlorophenylamino)-1-methyl-1H-pyrrolo[3,2-c]pyridin-7-yl]-1-morpholin-4-ylmethanone (GSK554418A), a brain penetrant 5-azaindole CB2 agonist for the treatment of chronic pain” (J Med Chem, 2009)
In brackets after ≈: the same amount, converted by molar mass. Activity calls are given as the source filed them. No cut-off for these calls is given here.

What was measured:
[1] = Binding affinity to GABA receptor at 1 uM
[2] = Oral bioavailability in Sprague-Dawley rat at 2 mg/kg after 0.8 hrs; assay type: ADME, organism-based; conditions: in vivo
[3] = Dissociation constant, pKa of the compound; assay type: physicochemical
[4] = biological target: Beta-1 adrenergic receptor (Homo sapiens) (UniProt P08588); assay: Binding affinity to human beta-1 adrenergic receptor at 1 uM
Chain of Beta-1 adrenergic receptor (Homo sapiens) (P08588 whole entry, looked up): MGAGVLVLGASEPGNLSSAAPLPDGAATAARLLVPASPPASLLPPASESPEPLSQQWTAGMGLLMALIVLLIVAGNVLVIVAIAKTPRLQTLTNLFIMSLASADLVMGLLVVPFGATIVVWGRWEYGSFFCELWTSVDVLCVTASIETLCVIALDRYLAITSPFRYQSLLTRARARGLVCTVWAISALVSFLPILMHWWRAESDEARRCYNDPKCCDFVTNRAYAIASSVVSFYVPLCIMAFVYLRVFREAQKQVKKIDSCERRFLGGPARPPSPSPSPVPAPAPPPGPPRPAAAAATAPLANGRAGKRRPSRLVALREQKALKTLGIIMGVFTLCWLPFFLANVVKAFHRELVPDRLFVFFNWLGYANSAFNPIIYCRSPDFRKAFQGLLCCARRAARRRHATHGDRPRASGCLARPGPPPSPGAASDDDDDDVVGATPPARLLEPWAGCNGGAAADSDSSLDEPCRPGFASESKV

[5] = biological target: Type-1 angiotensin II receptor (Homo sapiens) (UniProt P30556); assay: Binding affinity to human AT1 receptor at 1 uM
Chain of Type-1 angiotensin II receptor (Homo sapiens) (P30556 whole entry): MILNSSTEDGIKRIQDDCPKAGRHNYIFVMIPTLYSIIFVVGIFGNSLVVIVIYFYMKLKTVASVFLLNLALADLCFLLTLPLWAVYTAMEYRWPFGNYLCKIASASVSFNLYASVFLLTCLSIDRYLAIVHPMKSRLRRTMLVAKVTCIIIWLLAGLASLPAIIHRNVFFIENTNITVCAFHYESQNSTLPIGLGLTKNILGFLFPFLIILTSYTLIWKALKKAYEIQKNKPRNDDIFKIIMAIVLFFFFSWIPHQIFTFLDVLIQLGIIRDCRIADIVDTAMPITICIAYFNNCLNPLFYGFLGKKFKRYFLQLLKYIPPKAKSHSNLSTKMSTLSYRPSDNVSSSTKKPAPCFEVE

Cannabinoid receptor 2 = Cannabinoid receptor 2 (Homo sapiens, UniProt P34972); assay: Agonist activity at human recombinant cannabinoid CB2 receptor expressed in MMY23 Saccharomyces cerevisiae assessed as degradation of FDGlu to fluorescein after 24 hrs by spectrofluorimetry; assay type: functional
Chain of Cannabinoid receptor 2 (P34972 whole entry): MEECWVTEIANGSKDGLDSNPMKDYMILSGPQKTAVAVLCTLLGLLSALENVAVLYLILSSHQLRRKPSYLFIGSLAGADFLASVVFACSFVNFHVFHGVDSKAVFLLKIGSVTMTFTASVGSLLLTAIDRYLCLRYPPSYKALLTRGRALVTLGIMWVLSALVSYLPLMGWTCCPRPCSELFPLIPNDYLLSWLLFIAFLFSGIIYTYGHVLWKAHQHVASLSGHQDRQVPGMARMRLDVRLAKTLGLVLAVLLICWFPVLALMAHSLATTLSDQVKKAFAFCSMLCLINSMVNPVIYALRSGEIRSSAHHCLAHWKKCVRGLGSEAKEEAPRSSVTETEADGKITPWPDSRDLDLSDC

[6] = Drug level in blood of complete Freund's adjuvant rat model of inflammatory pain at 0.1 mg/kg, po administered as single dose measured after 1 hr; assay type: ADME, organism-based; parameters: dose 0.1 mg/kg, route oral; conditions: read-out: Drug uptake
Cannabinoid receptor 1 = Cannabinoid receptor 1 (Homo sapiens, UniProt P21554); assay: Agonist activity at human recombinant cannabinoid CB1 receptor expressed in MMY23 Saccharomyces cerevisiae assessed as degradation of FDGlu to fluorescein after 24 hrs by spectrofluorimetry; assay type: functional
Chain of Cannabinoid receptor 1 (P21554 whole entry): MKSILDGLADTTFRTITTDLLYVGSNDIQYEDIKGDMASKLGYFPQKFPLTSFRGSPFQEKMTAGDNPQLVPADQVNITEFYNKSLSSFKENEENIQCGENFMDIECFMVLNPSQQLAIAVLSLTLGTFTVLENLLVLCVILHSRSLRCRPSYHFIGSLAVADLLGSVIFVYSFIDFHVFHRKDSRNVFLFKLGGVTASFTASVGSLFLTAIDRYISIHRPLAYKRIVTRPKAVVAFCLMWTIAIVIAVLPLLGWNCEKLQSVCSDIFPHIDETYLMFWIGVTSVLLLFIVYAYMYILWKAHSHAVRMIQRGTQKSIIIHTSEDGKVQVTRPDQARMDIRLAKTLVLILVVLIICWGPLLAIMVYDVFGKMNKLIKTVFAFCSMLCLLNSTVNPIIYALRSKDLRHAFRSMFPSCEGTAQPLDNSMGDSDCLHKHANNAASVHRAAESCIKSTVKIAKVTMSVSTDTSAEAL

[7] = biological target: D(1A) dopamine receptor (Homo sapiens) (UniProt P21728); assay: Binding affinity to human dopamine D1 receptor at 1 uM
Chain of D(1A) dopamine receptor (Homo sapiens) (P21728 whole entry): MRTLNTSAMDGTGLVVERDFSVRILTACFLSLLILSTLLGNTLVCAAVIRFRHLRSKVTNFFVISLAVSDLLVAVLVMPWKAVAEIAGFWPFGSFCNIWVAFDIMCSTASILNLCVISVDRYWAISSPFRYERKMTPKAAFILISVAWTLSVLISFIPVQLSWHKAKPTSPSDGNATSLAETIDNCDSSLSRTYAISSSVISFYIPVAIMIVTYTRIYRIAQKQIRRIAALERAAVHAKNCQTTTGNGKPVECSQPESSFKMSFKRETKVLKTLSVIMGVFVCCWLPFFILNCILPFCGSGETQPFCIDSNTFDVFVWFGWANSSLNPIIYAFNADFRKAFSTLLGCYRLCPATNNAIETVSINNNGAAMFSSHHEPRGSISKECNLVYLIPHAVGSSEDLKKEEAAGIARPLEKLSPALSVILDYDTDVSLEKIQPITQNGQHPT

[8] = Drug level in rat blood at 130 mg/kg, po after 1 hr; assay type: ADME, organism-based; parameters: dose 130 mg/kg, route oral; conditions: read-out: Drug uptake
Cytochrome P450 3A4 = Cytochrome P450 3A4 (Homo sapiens, UniProt P08684); assay: Inhibition of CYP3A4; assay type: ADME
Chain of Cytochrome P450 3A4 (P08684 whole entry): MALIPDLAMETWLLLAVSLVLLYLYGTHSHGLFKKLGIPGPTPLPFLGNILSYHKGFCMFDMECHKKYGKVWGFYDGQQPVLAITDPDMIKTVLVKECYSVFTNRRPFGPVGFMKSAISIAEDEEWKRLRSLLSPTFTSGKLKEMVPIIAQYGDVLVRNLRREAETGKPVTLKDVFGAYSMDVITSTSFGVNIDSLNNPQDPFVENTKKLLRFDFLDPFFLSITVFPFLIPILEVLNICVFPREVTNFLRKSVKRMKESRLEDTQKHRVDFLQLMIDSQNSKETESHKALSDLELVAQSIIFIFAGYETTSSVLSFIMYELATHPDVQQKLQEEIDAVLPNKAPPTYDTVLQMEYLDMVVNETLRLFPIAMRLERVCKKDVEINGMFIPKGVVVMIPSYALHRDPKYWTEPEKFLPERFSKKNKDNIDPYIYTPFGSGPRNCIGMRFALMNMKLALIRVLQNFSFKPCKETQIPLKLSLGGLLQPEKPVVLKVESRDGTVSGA

Rattus norvegicus [9] = assay: Antihyperalgesic activity in po dosed complete Freund's adjuvant rat model of inflammatory pain assessed as reduction of hypersensitivity administered as single dose; assay type: functional
Rattus norvegicus [10] = assay: Antihyperalgesic activity in complete Freund's adjuvant rat model of inflammatory pain assessed as reversal of hyperalgesia at 1 mg/kg, po administered as single dose in presence of 15 mg/kg, ip cannabinoid CB2 receptor antagonsit AM630; assay type: functional, organism-based
[11] = biological target: Adenosine receptor A2a (Homo sapiens) (UniProt P29274); assay: Binding affinity to human adenosine A2A receptor at 1 uM
Chain of Adenosine receptor A2a (Homo sapiens) (P29274 whole entry): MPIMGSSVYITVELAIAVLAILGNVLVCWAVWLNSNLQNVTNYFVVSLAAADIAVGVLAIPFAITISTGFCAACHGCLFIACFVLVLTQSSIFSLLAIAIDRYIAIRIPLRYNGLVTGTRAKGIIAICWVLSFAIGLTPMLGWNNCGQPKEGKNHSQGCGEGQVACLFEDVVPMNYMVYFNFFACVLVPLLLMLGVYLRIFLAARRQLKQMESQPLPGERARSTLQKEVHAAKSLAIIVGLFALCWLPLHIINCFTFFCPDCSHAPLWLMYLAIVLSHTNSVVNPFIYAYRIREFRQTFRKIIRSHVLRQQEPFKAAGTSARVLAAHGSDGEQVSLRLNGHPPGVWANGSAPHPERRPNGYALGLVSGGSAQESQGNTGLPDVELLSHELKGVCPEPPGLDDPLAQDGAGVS

[12] = Solubility in simulated intestinal fluid at pH 5; assay type: physicochemical
[13] = Efflux ratio of apparent permeability […] side of MDR1-expressing MDCK2 cells after 60 mins by liquid scintillation counting; assay type: ADME, cell-based, Canis lupus familiaris; conditions: dog, mdck-ii, 1 h
[14] = biological target: Adenosine receptor A1 (Homo sapiens) (UniProt P30542); assay: Binding affinity to human adenosine A1 receptor at 1 uM
Chain of Adenosine receptor A1 (Homo sapiens) (P30542 whole entry): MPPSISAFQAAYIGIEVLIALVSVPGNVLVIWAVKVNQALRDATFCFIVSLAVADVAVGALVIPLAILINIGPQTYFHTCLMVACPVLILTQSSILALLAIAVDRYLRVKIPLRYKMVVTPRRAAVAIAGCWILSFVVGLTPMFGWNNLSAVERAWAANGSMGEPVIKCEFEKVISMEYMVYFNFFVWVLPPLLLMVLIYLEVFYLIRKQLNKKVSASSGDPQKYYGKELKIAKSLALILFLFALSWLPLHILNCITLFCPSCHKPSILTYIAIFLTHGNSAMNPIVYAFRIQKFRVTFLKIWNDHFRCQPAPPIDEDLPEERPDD

Work on `Cn1ccc2c(Nc3cccc(Cl)c3)ncc(C(=O)N3CCOCC3)c21` yielded an Activity [1] of less than 10%, a bioavailability [2] of 82% and a pKa [3] of 6.1. For the same compound, the Activity [4] was less than 10%, the Activity [5] was less than 10% and the EC50 (Cannabinoid receptor 2) was 0.005 µM. The concentration at 1 h [6] was 0.097 µM, the EC50 (Cannabinoid receptor 1) was 6.3 µM and the Activity [7] was less than 10%. It also gave a concentration at 1 h [8] of 8.6 µM, an IC50 (Cytochrome P450 3A4) of 24 µM and an ED50 (Rattus norvegicus [9]) of 0.02 mg/kg. The Activity (Rattus norvegicus [10]) was “Active”, the Activity [11] was less than 10% and the solubility [12] was 590 µg/mL (≈ 1590 µM). The Ratio [13] was 2.9 and the Activity [14] was less than 10%.
